Data as given in patent publication US4081434A, “Novel analogs of β-endorphin” (Hoffmann-La Roche Inc., priority 1977, dated 1978).
Ends that are not written are not given here.

System: guinea pig ileum
Experiment: guinea pig ileum bioassay of Kosterlitz et al. (opiate agonist activity)
Type: cell-based
Conditions: guinea pig ileum assay for opiate agonist activity
Source text: Thus, for example, in the guinea pig ileum bioassay of Kosterlitz et al. Brit. J. Pharmacol. 39, 398 (1970) the IC50 (50% inhibiting concentration) of representative β-endorphins and the relative potency of β-endorphin fragments are as follows.

| Compound | more potent than parent compound βh -endorphin |
| --- | --- |
| YGGFMTLFKNAIIKNAYKKGE [βh-endorphin-(1-5)-(16-31), H--tyr--Gly--Gly--Phe--Met--Thr--Leu--Phe--Lys--Asn--Ala--Ile--Ile--Lys--Asn--Ala--Tyr--Lys--Lys--Gly--Glu--OH] | about 35% |

Same assay, conditions: guinea pig ileum bioassay; βh and βc -endorphin = 1.00

| Compound | relative potency |
| --- | --- |
| CC[C@H](C)[C@H](NC(=O)[C@H](C)NC(=O)[C@H](CC(N)=O)NC(=O)[C@H](CCCCN)NC(=O)[C@H](Cc1ccccc1)NC(=O)[C@H](CC(C)C)NC(=O)[C@@H](NC(=O)[C@@H](NC(=O)[C@H](CC(C)C)NC(=O)[C@@H]1CCCN1C(=O)[C@@H](NC(=O)[C@H](CCC(N)=O)NC(=O)[C@H](CO)NC(=O)[C@H](CCCCN)NC(=O)[C@H](CCC(=O)O)NC(=O)[C@H](CO)NC(=O)[C@@H](NC(=O)[C@H](CCSC)NC(=O)[C@H](Cc1ccccc1)NC(=O)CNC(=O)CNC(=O)[C@@H](N)Cc1ccc(O)cc1)[C@@H](C)O)[C@@H](C)O)C(C)C)[C@@H](C)O)C(=O)N[C@H](C(=O)N[C@@H](CCCCN)C(=O)N[C@@H](CC(N)=O)C(=O)N[C@@H](C)C(=O)N[C@@H](Cc1ccc(O)cc1)C(=O)N[C@@H](CCCCN)C(=O)N[C@@H](CCCCN)C(=O)NCC(=O)N[C@@H](CCC(=O)O)C(=O)O)[C@@H](C)CC [βh -endorphin] | 1.00 |
| YGGFMTLFKNAIIKNAYKKGE [βh-endorphin-(1-5)-(16-31), H--tyr--Gly--Gly--Phe--Met--Thr--Leu--Phe--Lys--Asn--Ala--Ile--Ile--Lys--Asn--Ala--Tyr--Lys--Lys--Gly--Glu--OH] | 1.35 |
| YGGFMTSEKSQTPLVTLFKNAIIKNAHKKGQ [βc -endorphin] | 1.00 |
| met-enkephalin | 0.26 |
| βc -endorphin-(6-31): fragment 6-31 of camel β-endorphin (TSEKSQTPLVTLFKNAIIKNAHKKGQ; Beta-endorphin; UniProt P01203 6-31, looked up, fragment) | 0.04 |
| βc -endorphin-(20-31): fragment 20-31 of camel β-endorphin (NAIIKNAHKKGQ; Beta-endorphin; UniProt P01203 20-31, looked up, fragment) | 0.001 |
